Experimental data as given in US20250120986A1, “STEROL THERAPY” (UCL BUSINESS LTD, priority 2021, published 2025).

Tests used:
[1] = system: H9C2 cardiomyocyte cells; test: Sterol concentration in H9C2 cells after MßCD depletion (Amplex Red / BCA); format: cell-based, rat; settings: sterol-MßCD complex, 68 microM sterol, 4 hours
Procedure: Rat embryonic cardiomyocyte H9C2 cells were cultured in high-glucose DMEM (Gibco 41965-039) supplemented with 10% fetal bovine serum (FBS, Gibco 10270-106) and 100 U/ml of penicillin/streptomycin at 37° C. in a humidified atmosphere of 5% CO2. Cells were split every 2-3 days.
Two days prior to experimentation, cells were seeded in 6 well plates (Corning N-3516) 3×10^5 cells/well. Before any treatment. cells were washed twice with prewarmed PBS.
(§1) Cells were incubated in 5 mM solution MßCD in DMEM for 30 minutes. Before treatment cells were washed twice with prewarmed PBS to remove remaining FBS and prevent contamination of exogenous cholesterol.
After MßCD treatment cells were washed twice with prewarmed PBS to remove remaining MßCD solution and then incubated for 4 hours with either (i) complex Cholesterol—MßCD or (ii) Sitosterol—MßCD. These were prepared according to the protocol reported by Klein et al. (Biochemistry 1995; 34:13784). […]
After incubation MßCD-treated, MßCD/Sterol treated, and untreated (control) cells were washed twice with ice-cold PBS and lysed with phosphate buffer (0.1 M potassium phosphate pH 7.4, 50 mM NaCl, 5 mM cholic acid, 0.1% Triton X-100, protease inhibitors) on ice. […] Protein and sterol concentrations were measured by BCA and Cholesterol Amplex Red assays, respectively. […]

[2] = system: H9C2 cell line; test: Western blot of ERK2 phosphorylation after adrenaline treatment (adrenergic signalling); format: cell-based, rat; settings: for ERK2 phosphorylation after adrenaline treatment: H9C2 depleted with MßCD, then incubated with sterol
Procedure: as §1
After MßCD treatment cells were washed twice with prewarmed PBS to remove remaining MßCD solution and then incubated for 4 hours with either (i) complex Cholesterol—MßCD or (ii) Sitosterol—MßCD. These were prepared according to the protocol reported by Klein et al. (Biochemistry 1995; 34:13784). Sterol complexes were diluted ×100 in DMEM to produce final concentrations of 68 microM cholesterol, 68 microM sitosterol and 700 microM MßCD.
Control, MßCD or MßCD/sterol-treated cells were incubated for 10 minutes with adrenaline or noradrenaline solution in DMEM (final concentration 10^−7M).
Cells were washed and lysed on plates with RIPA buffer supplemented by protease and phosphatase inhibitors on ice for 30 minutes. Lysates were treated as described above for sterol determination. Protein concentration was determined by BCA assay. Western blot samples were prepared by mixing the lysates with 5× loading buffer (Tris HCl pH 6.8 312.5 mM, SDS 10%, bME 12.5%, glycerol 47.5%, bromophenol blue 0.01%). 2 mcg of protein/sample was separated by electrophoresis on 10% SDS-PAGE and transferred to a PVDF membrane. Membrane was blocked with 5% BSA in TBST for 1 hour at room temperature with gentle agitation and incubated with primary anti-pERK or anti-PFK antibodies overnight at 4° C. Both primary antibodies were diluted 2000 times in 5% BSA in TBST. […]
Chemiluminescent detection was performed using the Clarity TM Western ECL Substrate (Bio-Rad). Band intensity was analysed by Image Studio Lite ver5.2. Results are calculated as a ratio of intensities of pERK2 band to PFK band for each sample and normalized as a percentage from the average of samples treated with adrenaline only.

[3] = system: sham-operated rats and septic rats; test: Catecholamine responsiveness study (dobutamine / noradrenaline challenge) in rat faecal peritonitis model; format: in vivo; settings: 10 minutes after commencement of infusion
Procedure: II. Sepsis was induced in awake, instrumented male Wistar rats (316±23.5 g) as described above but using 7 microL of faecal slurry/g body weight. Rats were allocated into sham-operated (control), sepsis and sepsis+cholesterol groups.
At 6 h post-induction of sepsis, the sepsis+cholesterol group received an i.v. infusion of a cholesterol-loaded formulation, either liposomal- or bovine HDL (10 mg cholesterol/300 g bw), which was continued over 15 hours.
At 21 h, catecholamine responsiveness was tested by consecutively administering, under isoflurane anaesthesia, the beta-adrenergic agonist, dobutamine (10 μg/kg/min for 10 min) and then the predominant alpha-adrenergic agonist, norepinephrine (0.5 μg/kg/min for 10 min) with a 30 min washout period in between.
Blood pressure (measured continuously from an indwelling carotid line), heart rate and stroke volume (measured by echocardiography) were measured before and at 10 minutes after each drug was infused.

[4] = system: H9C2 cardiomyocytes; test: ERK1 and ERK2 phosphorylation after dobutamine treatment (adrenergic signalling); format: cell-based, rat; settings: H9C2 treated with MßCD alone
Procedure: Adrenergic signalling was evaluated in the H9C2 cardiomyocytes by the increase of ERK1 and ERK2 phosphorylation after dobutamine treatment.

[5] = septic rats, 21 h post-faecal peritonitis

Q: What does the source list for `CC[C@H](CC[C@@H](C)[C@H]1CC[C@H]2[C@@H]3CC=C4C[C@@H](O)CC[C@]4(C)[C@H]3CC[C@]12C)C(C)C` [sitosterol, Sitosterol]?
A: cellular sterol content after MßCD depletion [1]: Sterol content was restored; ERK2 phosphorylation after adrenaline treatment [2]: 2 × normal

Q: Which results are given for `NC[C@H](O)c1ccc(O)c(O)c1` [noradrenaline]?
A: blood pressure response to the agonist [3, 5]: non-responsive; blood pressure response to the agonist ([3]; sham animals): significant rises

Q: Which “cellular sterol content after MßCD depletion” value [1] does the source give for `CC(C)CCC[C@@H](C)[C@H]1CC[C@H]2[C@@H]3CC=C4C[C@@H](O)CC[C@]4(C)[C@H]3CC[C@]12C` [cholesterol, Cholesterol] here?
A: The value was “Sterol content was restored”.

Q: What about the “ERK2 phosphorylation after adrenaline treatment” value [2] of the same compound?
A: Its value is 2 × normal.

Q: `CC(CCc1ccc(O)cc1)NCCc1ccc(O)c(O)c1` (stereo not shown) [dobutamine] was tested. Which “stroke volume response to the agonist” value [3, 5] did it give?
A: Its value is “non-responsive”.

Q: What about the “stroke volume response to the agonist” value ([3]; sham animals) of the same compound?
A: Its value is “significant rises”.

Q: What does the source list for Methyl-β-cyclodextrin [MßCD]?
A: ERK2 phosphorylation after adrenaline treatment (in words) ([2]; H9C2, 5 mM MßCD for 30 minutes): decreased ERK2 phosphorylation; phosphorylation of ERK1 and ERK2 after dobutamine treatment [4]: decreased phosphorylation of both ERK1 and ERK2
